Source: patent US8129384B2, “Imidazo[1,2-a]pyrazines as orexin receptor antagonists” (Glaxo Group Limited, priority 2008, dated 2012)
Structures can show the parent of a compound that is named as a salt.

Legend:
[1] = target: T1, human cloned orexin-1 receptor (Homo sapiens, UniProt O43613); test: Antagonist affinity at human Orexin-1 receptor using FLIPR ([Ca2+]i); type: cell-based; details: CHO-hOX1 cells, EC80 hOrexinA stimulus, functional pKi from IC50 by modified Cheng-Prusoff correction; read-out: fpKi value at the human cloned orexin-1 receptor (converted)
T1 construct: expressed in transfected cells
T1 sequence (O43613 1-425): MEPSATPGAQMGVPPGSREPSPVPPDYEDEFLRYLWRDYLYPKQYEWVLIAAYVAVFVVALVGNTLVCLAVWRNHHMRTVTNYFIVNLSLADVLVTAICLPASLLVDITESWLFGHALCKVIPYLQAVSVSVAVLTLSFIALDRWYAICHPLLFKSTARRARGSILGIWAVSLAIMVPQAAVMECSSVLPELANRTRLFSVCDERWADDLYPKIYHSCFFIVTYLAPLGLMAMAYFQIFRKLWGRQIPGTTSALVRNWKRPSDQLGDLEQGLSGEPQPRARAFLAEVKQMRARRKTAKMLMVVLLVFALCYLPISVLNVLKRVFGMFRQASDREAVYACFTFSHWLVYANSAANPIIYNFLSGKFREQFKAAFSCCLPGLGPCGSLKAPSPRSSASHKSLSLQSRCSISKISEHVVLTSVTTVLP
Procedure: (§1) Determination of Antagonist Affinity at Human Orexin-1 and 2 Receptors Using FLIPR
(§2) Adherent Chinese Hamster Ovary (CHO) cells, stably expressing the recombinant human Orexin-1 (hOX1) or human Orexin-2 receptors (hOX2), were maintained in culture in Alpha Minimum Essential Medium (Gibco/Invitrogen, cat. no.; 22571-020), supplemented with 10% decomplemented foetal bovine serum (Life Technologies, cat. no. 10106-078) and 400 ug/mL Geneticin G418 (Calbiochem, cat. no. 345810). Cells were grown as monolayers under 95%:5% air:CO2 at 37° C. and passaged every 3-4 days. The highest passage used was 25. […]
(§3) An agonist stimulus 384-well plate containing 50 μL/well of human orexin A (hOrexinA) was prepared just before using by diluting with buffer a stock plate: final concentration is equivalent to the calculated EC80 for hOrexinA. […]
(§4) The loaded cells were then incubated for 10 min at 37° C. with test compound. The plates were then placed into a FLIPR™ (Molecular Devices, UK) to monitor cell fluorescence (λex=488 nm, λEM=540 nm) (Sullivan E, Tucker E M, Dale I L. Measurement of [Ca^2+]i using the fluometric imaging plate reader (FLIPR). In: Lambert D G (ed.), Calcium Signaling Protocols. New Jersey: Humana Press, 1999, 125-136). A baseline fluorescence reading was taken over a 5 to 10 second period, and then 10 μL of EC80 hOrexinA solution was added. […]

[2] = target: T2, human cloned orexin-2 receptor (Homo sapiens, UniProt O43614); test: Antagonist affinity at human Orexin-2 receptor using FLIPR ([Ca2+]i); type: cell-based; details: CHO-hOX2 cells, EC80 hOrexinA stimulus, functional pKi from IC50 by modified Cheng-Prusoff correction; read-out: fpKi value at the human cloned orexin-2 receptor (converted)
T2 construct: expressed in transfected cells
T2 sequence (O43614 1-444): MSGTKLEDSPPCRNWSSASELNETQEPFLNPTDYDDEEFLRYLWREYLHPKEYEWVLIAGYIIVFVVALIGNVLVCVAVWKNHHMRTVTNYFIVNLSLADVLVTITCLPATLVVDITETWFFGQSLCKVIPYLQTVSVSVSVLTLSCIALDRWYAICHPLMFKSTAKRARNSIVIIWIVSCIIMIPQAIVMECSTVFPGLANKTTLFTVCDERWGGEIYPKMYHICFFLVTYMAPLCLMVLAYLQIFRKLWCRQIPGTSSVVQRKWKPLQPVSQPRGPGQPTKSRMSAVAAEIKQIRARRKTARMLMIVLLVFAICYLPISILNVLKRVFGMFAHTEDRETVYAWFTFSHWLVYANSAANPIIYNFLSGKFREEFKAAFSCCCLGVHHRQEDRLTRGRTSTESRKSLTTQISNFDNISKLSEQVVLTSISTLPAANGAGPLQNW
Procedure: as §1, §2, §3, §4

- Ki [1]: 5.01 nM
- Ki [2]: 6.31 nM
SMILES: Cc1cn2cc(C[C@@H]3CCCCN3C(=O)c3nc(C)sc3-c3ccccc3)nc2c(C)n1 [Example 1, 6,8-dimethyl-2-({(2S)-1-[(2-methyl-5-phenyl-1,3-thiazol-4-yl)carbonyl]-2-piperidinyl}methyl)imidazo[1,2-a]pyrazine (HCl salt)]
